Assay [1] concerns the target T1, indoleamine 2, 3-dioxygenase (IDO1) (Homo sapiens, UniProt P14902). The assay can be described thus: PBMC IDOi assay (kynurenine detection by mass spectrometry). The assay is classed as cell-based. Particulars: IFN-γ and LPS stimulated human PBMC, 2 days. How it is done: (§1) Compounds of the present invention were tested via high-throughput cellular assays utilizing detection of kynurenine via mass spectrometry and cytotoxicity as end-points. For the mass spectrometry and cytotoxicity assays, human peripheral blood mononuclear cells (PBMC) (PB003F; AllCells®, Alameda, Calif.) were stimulated with human interferon-γ (IFN-γ) (Sigma-Aldrich Corporation, St. Louis, Mo.) and lipopolysaccharide from Salmonella minnesota (LPS) (Invivogen, San Diego, Calif.) to induce the expression of indoleamine 2, 3-dioxygenase (IDO1). Compounds with IDO1 inhibitory properties decreased the amount of kynurenine produced by the cells via the tryptophan catabolic pathway. Cellular toxicity due to the effect of compound treatment was measured using CellTiter-Glo® reagent (CTG) (Promega Corporation, Madison, Wis.), which is based on luminescent detection of ATP, an indicator of metabolically active cells.
(§2) In preparation for the assays, test compounds were serially diluted 3-fold in DMSO from a typical top concentration of 5 mM and plated at 0.5 μL in 384-well, polystyrene, clear bottom, tissue culture treated plates with lids (Greiner Bio-One, Kremsmünster, Austria) to generate 11-point dose response curves. Low control wells (0% kynurenine or 100% cytotoxicity) contained either 0.5 μL of DMSO in the presence of unstimulated (−IFN-γ/−LPS) PBMCs for the mass spectrometry assay or 0.5 μL of DMSO in the absence of cells for the cytotoxicity assay, and high control wells (100% kynurenine or 0% cytotoxicity) contained 0.5 μL of DMSO in the presence of stimulated (+IFN-γ/+LPS) PBMCs for both the mass spectrometry and cytotoxicity assays.
Frozen stocks of PBMCs were washed and recovered in RPMI 1640 medium (Thermo Fisher Scientific, Inc., Waltham, Mass.) supplemented with 10% v/v heat-inactivated fetal bovine serum (FBS) (Thermo Fisher Scientific, Inc., Waltham, Mass.), and 1× penicillin-streptomycin antibiotic solution (Thermo Fisher Scientific, Inc., Waltham, Mass.). The cells were diluted to 1,000,000 cells/mL in the supplemented RPMI 1640 medium. 50 μL of either the cell suspension, for the mass spectrometry assay, or medium alone, for the cytotoxicity assay, were added to the low control wells, on the previously prepared 384-well compound plates, resulting in 50,000 cells/well or 0 cells/well respectively. IFN-γ and LPS were added to the remaining cell suspension at final concentrations of 100 ng/ml and 50 ng/ml respectively, and 50 μL of the stimulated cells were added to all remaining wells on the 384-well compound plates. The plates, with lids, were then placed in a 37° C., 5% CO2 humidified incubator for 2 days.
(§3) Following incubation, the 384-well plates were removed from the incubator and allowed to equilibrate to room temperature for 30 minutes. For the cytotoxicity assay, CellTiter-Glo® was prepared according to the manufacturer's instructions, and 40 μL were added to each plate well. After a twenty minute incubation at room temperature, luminescence was read on an EnVision® Multilabel Reader (PerkinElmer Inc., Waltham, Mass.). For the mass spectrometry assay, 10 μL of supernatant from each well of the compound-treated plates were added to 40 μL of acetonitrile, containing 10 μM of an internal standard for normalization, in 384-well, polypropylene, V-bottom plates (Greiner Bio-One, Kremsmünster, Austria) to extract the organic analytes. Following centrifugation at 2000 rpm for 10 minutes, 10 μL from each well of the acetonitrile extraction plates were added to 90 μL of sterile, distilled H2O in 384-well, polypropylene, V-bottom plates for analysis of kynurenine and the internal standard on the RapidFire 300 (Agilent Technologies, Santa Clara, Calif.) and 4000 QTRAP MS (SCIEX, Framingham, Mass.). MS data were integrated using Agilent Technologies' RapidFire Integrator software, and data were normalized for analysis as a ratio of kynurenine to the internal standard. […]

The target in assay [2] is T1, indoleamine 2, 3-dioxygenase (IDO1). The assay can be described thus: HeLa IDOi assay (kynurenine detection by mass spectrometry). Set-up: human epithelial HeLa cells (CCL-2; host or cells: HeLa cells stimulated with human IFN-γ. The settings on record: IFN-γ stimulated human epithelial HeLa cells, 2 days. It is filed as cell-based. The procedure: as §1, with “epithelial HeLa” for “peripheral blood mononuclear”, “(CCL-2; ATCC®, Manassas, Va.)” for “(PBMC) (PB003F; AllCells®, Alameda, Calif.)”, “Mo.)” for “Mo.) and lipopolysaccharide from Salmonella minnesota (LPS) (Invivogen, San Diego, Calif.)”
as §2, with “(−IFN-γ) HeLa cells” for “(−IFN-γ/−LPS) PBMCs”, “(+IFN-γ) HeLa cells” for “(+IFN-γ/+LPS) PBMCs”
Frozen stocks of HeLa cells were washed and recovered in DMEM high glucose medium with HEPES (Thermo Fisher Scientific, Inc., Waltham, Mass.) supplemented with 10% v/v certified fetal bovine serum (FBS) (Thermo Fisher Scientific, Inc., Waltham, Mass.), and 1× penicillin-streptomycin antibiotic solution (Thermo Fisher Scientific, Inc., Waltham, Mass.). The cells were diluted to 100,000 cells/mL in the supplemented DMEM medium. 50 μL of either the cell suspension, for the mass spectrometry assay, or medium alone, for the cytotoxicity assay, were added to the low control wells, on the previously prepared 384-well compound plates, resulting in 5,000 cells/well or 0 cells/well respectively. IFN-γ was added to the remaining cell suspension at a final concentration of 10 nM, and 50 μL of the stimulated cells were added to all remaining wells on the 384-well compound plates. The plates, with lids, were then placed in a 37° C., 5% CO2 humidified incubator for 2 days.
as §3, with “instructions, and 10 μL were” for “instructions, and 40 μL were”

Counter-ions that a name gives are not always drawn.

T1 sequence (P14902 whole entry): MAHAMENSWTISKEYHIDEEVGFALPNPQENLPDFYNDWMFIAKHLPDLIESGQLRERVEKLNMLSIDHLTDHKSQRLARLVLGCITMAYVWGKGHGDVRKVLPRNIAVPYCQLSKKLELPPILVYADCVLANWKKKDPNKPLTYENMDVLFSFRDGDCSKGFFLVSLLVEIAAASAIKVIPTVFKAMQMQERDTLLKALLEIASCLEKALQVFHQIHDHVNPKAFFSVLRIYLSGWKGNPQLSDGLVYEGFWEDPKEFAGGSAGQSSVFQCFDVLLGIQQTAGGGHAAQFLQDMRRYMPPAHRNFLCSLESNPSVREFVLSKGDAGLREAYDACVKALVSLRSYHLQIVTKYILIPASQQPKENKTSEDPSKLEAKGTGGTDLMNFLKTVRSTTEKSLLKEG

A word on the EC50: it is the concentration needed to bring the measured effect to its halfway point. In the case of `CC(C)CN(CC(C)C)c1ccc(C(C)CC(=O)O)cc1Nc1cnc(C2CC2)s1` (stereo not drawn) [Example 61, 3-(3-((2-cyclopropylthiazol-5-yl)amino)-4-(diisobutylamino)phenyl)butanoic acid], the figures for the concentration for a half-maximal effect (EC50) in assay [1] and in assay [2] were 31.6 nM and 63.1 nM, respectively.
On to `CC(C)CN(c1ccc([C@H](C)CC(=O)O)cc1Nc1nc(C(F)(F)F)ns1)C1CCCCC1` [Example 38, (R)-3-(4-(cyclohexyl(isobutyl)amino)-3-((3-(trifluoromethyl)-1,2,4-thiadiazol-5-yl)amino)phenyl)butanoic acid], for which the EC50 in assay [1] was 1 nM; in assay [2], 3.98 nM.
The matching figures for `CC(C)CN(CC(C)C)c1ccc([C@@H](C)CC(=O)O)cc1Nc1nc(C(F)(F)F)ns1` [Example 53, (S)-3-(4-(diisobutylamino)-3-((3-(trifluoromethyl)-1,2,4-thiadiazol-5-yl)amino)phenyl)butanoic acid]: 3.16 nM and 10 nM.
For `CC(C)CN(c1ccc(C(C)CC(=O)O)cc1Nc1nnc(C(F)(F)F)s1)C1CCCCC1` (stereo not drawn) [Example 29, 3-(4-(cyclohexyl(isobutyl)amino)-3-((5-(trifluoromethyl)-1,3,4-thiadiazol-2-yl)amino)phenyl)butanoic acid], the figures for the EC50 in assay [1] and in assay [2] were 0.316 nM and 3.16 nM, respectively.
For `CC(C)CN(CC(C)C)c1ccc(C(C)CC(=O)O)cc1Nc1nnc(C(F)(F)F)s1` (stereo not drawn) [Example 55, 3-(4-(diisobutylamino)-3-((5-(trifluoromethyl)-1,3,4-thiadiazol-2-yl)amino)phenyl)butanoic acid, 2,2,2-trifluoroacetic acid salt], the EC50 in assay [1] is 0.631 nM; in assay [2] it was 3.16 nM.
Consider `CC(C)CN(CC(C)C)c1ccc(C(C)CC(=O)O)cc1Nc1nnc(C2CC2)[nH]1` (stereo not drawn) [Example 48, 3-(3-((5-cyclopropyl-4H-1,2,4-triazol-3-yl)amino)-4-(diisobutylamino)phenyl)butanoic acid], for which the concentration giving a half-maximal response (EC50) in assay [1] is 25.1 nM; in assay [2], 63.1 nM.
The matching figures for `CC(C)CN(c1ccc([C@H](C)CC(=O)O)cc1Nc1nc(C(F)(F)F)cs1)C1CCCCC1` [Example 49, (R)-3-(4-(cyclohexyl(isobutyl)amino)-3-((4-(trifluoromethyl)thiazol-2-yl)amino)phenyl)butanoic acid]: 0.794 nM and 3.16 nM.
With `CC(C)CN(c1ccc([C@H](C)CC(=O)O)cc1Nc1ccnc(Cl)n1)C1CCCCC1` [Example 63, (R)-3-(3-((2-chloropyrimidin-4-yl)amino)-4-(cyclohexyl(isobutyl)amino)phenyl)butanoic acid], the EC50 in assay [1] is 20 nM; in assay [2], 31.6 nM.
Turning to `CC(C)CN(c1ccc(C(C)CC(=O)O)cc1NCc1ccco1)C1CCCCC1` (stereo not drawn) [Example 59, 3-(4-(cyclohexyl(isobutyl)amino)-3-((furan-2-ylmethyl)amino)phenyl)butanoic acid], the half-maximal effective concentration (EC50) in assay [1] is 200 nM; in assay [2], 501 nM.
The matching figures for `CC(C)CN(CC(C)C)c1ccc(C(C)CC(=O)O)cc1Nc1nc2ccccc2o1` (stereo not drawn) [Example 1, 3-(3-(benzo[d]oxazol-2-ylamino)-4-(diisobutylamino)phenyl)butanoic acid]: 631 nM and 398 nM.
For `CC(C)CN(CC(C)C)c1ccc([C@H](C)CC(=O)O)cc1Nc1nc(C(F)(F)F)ns1` [Example 54, (R)-3-(4-(diisobutylamino)-3-((3-(trifluoromethyl)-1,2,4-thiadiazol-5-yl)amino)phenyl)butanoic acid] the same measures were 2 nM and 6.31 nM.
The matching figures for `CC(C)CN(c1ccc(C(C)CC(=O)O)cc1NCc1cccs1)C1CCCCC1` (stereo not drawn) [Example 20, 3-(4-(cyclohexyl(isobutyl)amino)-3-((thiophen-2-ylmethyl)amino)phenyl)butanoic acid]: 50.1 nM and 126 nM.
On to `CC(C)CN(c1ccc(C(C)CC(=O)O)cc1NCc1cncs1)C1CCCCC1` (stereo not drawn) [Example 22, 3-(4-(cyclohexyl(isobutyl)amino)-3-((thiazol-5-ylmethyl)amino)phenyl)butanoic acid], for which the EC50 in assay [1] is 100 nM; in assay [2], 200 nM.
For `CC(C)CN(c1ccc([C@@H](C)CC(=O)O)cc1Nc1nc(C(F)(F)F)ns1)C1CCCCC1` [Example 37, (S)-3-(4-(cyclohexyl(isobutyl)amino)-3-((3-(trifluoromethyl)-1,2,4-thiadiazol-5-yl)amino)phenyl)butanoic acid] the same measures were 1 nM and 2 nM.
Regarding `CC(C)CN(c1ccc(C(C)CC(=O)O)cc1NC1=N[C@@H](C(F)(F)F)CO1)C1CCCCC1` (stereo partly drawn) [Example 76, 3-(4-(Cyclohexyl(isobutyl)amino)-3-(((R)-4-(trifluoromethyl)-4,5-dihydrooxazol-2-yl)amino)phenyl)butanoic acid], the values for the EC50 in assay [1] and in assay [2] were 20 nM and 31.6 nM, respectively.

Source of the values: US10472336B2, “Modulators of indoleamine 2,3-dioxygenase” (GlaxoSmithKline Intellectual Property (No.2) Limited, priority 2015, dated 2019).
